We go through 21 molecules from patent US20040138238A1, “Substituted aminopyrimidine compounds as neurokinin antagonists” (priority 2002, published 2004).

Where two headings read alike, the source gives them in different places. Where only a bound is given, the exact number is not on record here.

For one assay, the target named is T1, NK2 receptors (Homo sapiens, UniProt P21452).
T1 sequence (P21452 1-398): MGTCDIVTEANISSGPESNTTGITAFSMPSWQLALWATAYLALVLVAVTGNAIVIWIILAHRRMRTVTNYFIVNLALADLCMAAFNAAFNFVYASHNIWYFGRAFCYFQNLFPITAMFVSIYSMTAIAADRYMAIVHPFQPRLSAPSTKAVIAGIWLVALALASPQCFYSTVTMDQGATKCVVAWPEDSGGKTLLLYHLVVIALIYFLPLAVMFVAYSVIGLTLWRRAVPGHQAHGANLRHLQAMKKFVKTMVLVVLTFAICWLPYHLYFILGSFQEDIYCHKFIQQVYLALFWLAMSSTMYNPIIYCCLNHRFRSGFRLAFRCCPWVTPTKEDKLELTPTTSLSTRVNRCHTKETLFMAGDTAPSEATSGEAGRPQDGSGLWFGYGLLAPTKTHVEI
In words: in vitro binding to NK2 receptors. Further details: Ki (NK2), % @ 1000: concentration or dose not given beside the values. The settings on record: for Ki (NK2), % @ 1000: @ 1000 (concentration unit not given). On the procedure:
(§1) The activity of compounds of the invention were tested in vitro for binding to NK1 and NK2 receptors.

For the next assay, the target named is NK1 receptors (Homo sapiens, UniProt P25103). As to the kind of experiment: in vitro binding to NK1 receptors. On the procedure:
as §1

Chain of NK1 receptors (P25103 whole entry): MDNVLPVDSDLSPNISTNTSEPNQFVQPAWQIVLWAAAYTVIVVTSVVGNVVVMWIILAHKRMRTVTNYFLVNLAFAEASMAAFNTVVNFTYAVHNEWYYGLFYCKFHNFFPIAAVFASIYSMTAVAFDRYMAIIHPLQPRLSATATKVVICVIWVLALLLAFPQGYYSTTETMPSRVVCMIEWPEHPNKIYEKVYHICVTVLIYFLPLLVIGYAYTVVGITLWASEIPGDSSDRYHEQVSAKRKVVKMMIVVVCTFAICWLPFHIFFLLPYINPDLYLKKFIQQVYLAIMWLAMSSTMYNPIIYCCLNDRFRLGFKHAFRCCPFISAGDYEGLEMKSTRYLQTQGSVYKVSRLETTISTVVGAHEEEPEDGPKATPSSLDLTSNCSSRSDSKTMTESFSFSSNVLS

`OC(CNC1CCN(c2ncnc3scc(-c4ccccc4)c23)CC1)COc1ccc(Cl)cc1` (centres unmarked) [[3-(4-Chloro-phenoxy)-2-hydroxy-propyl]-[1-(5-phenyl-thieno[2,3-d]pyrimidin-4-yl)-piperidin-4-yl]-ammonium; chloride]: the Ki at NK2 receptors (unit inferred) is above 10000 nM; at NK1 receptors, 910 nM.
For the molecule `Cc1csc2ncnc(N3CCC(NCC(O)COc4ccc5c(c4)OCO5)CC3)c12` (centres unmarked) [1-(Benzo[1,3]dioxol-5-yloxy)-3-[1-(5-methyl-thieno[2,3-d]pyrimidin-4-yl)-piperidin-4-ylamino]-propan-2-ol], on NK1 receptors, the Ki is 868 nM.
Regarding `OC(CNC1CCN(c2ncnc3scc(-c4ccccc4)c23)CC1)COc1ccc(OC(F)(F)F)cc1` (centres unmarked) [1-[1-(5-Phenyl-thieno[2,3-d]pyrimidin-4-yl)-piperidin-4-ylamino]-3-(4-trifluoromethoxy-phenoxy)-propan-2-ol], the “Ki (NK2), % @ 1000” value at NK2 receptors came to 49% @. On NK1 receptors, affinity was put at a Ki of 15 nM.
With `COc1ccc(OCC(O)CNC2CCN(c3ncnc4scc(-c5ccccc5)c34)CC2)cc1OC` (centres unmarked) [1-(3,4-Dimethoxy-phenoxy)-3-[1-(5-phenyl-thieno[2,3-d]pyrimidin-4-yl)-piperidin-4-ylamino]-propan-2-ol], the Ki came to 6250 nM on NK2 receptors (unit inferred) and 126 nM at NK1 receptors.
In turn, `OC(CNC1CCN(c2ncnc3scc(-c4ccccc4)c23)CC1)COc1ccc(F)c(Cl)c1` (centres unmarked) [1-(3-Chloro-4-fluoro-phenoxy)-3-[1-(5-phenyl-thieno[2,3-d]pyrimidin-4-yl)-piperidin-4-ylamino]-propan-2-ol] yielded a Ki on NK1 receptors of 137 nM.
As to `COc1cc(OCC(O)CNC2CCN(c3ncnc4scc(-c5ccccc5)c34)CC2)ccc1Cl` (centres unmarked) [1-(4-Chloro-3-methoxy-phenoxy)-3-[1-(5-phenyl-thieno[2,3-d]pyrimidin-4-yl)-piperidin-4-ylamino]-propan-2-ol], on NK2 receptors, the “Ki (NK2), % @ 1000” value is on record as 47% @. Affinity at NK1 receptors was put at a Ki of 126 nM.
Take `OC(CNC1CCN(c2ncnc3scc(-c4ccccc4)c23)CC1)COc1cc(C(F)(F)F)cc(C(F)(F)F)c1` (centres unmarked) [1-(3,5-Bis-trifluoromethyl-phenoxy)-3-[1-(5-phenyl-thieno[2,3-d]pyrimidin-4-yl)-piperidin-4-ylamino]-propan-2-ol]: the figures for the Ki at NK2 receptors (unit inferred) and on NK1 receptors were above 1000 nM and 1310 nM, respectively.
Turning to `OC(CNC1CCN(c2ncnc3scc(-c4ccccc4)c23)CC1)COCc1ccccc1` (centres unmarked) [(3-Benzyloxy-2-hydroxy-propyl)-[1-(5-phenyl-thieno[2,3-d]pyrimidin-4-yl)-piperidin-4-yl]-ammonium; chloride], the inhibition constant (Ki) amounted to 2400 nM on NK2 receptors and 141 nM on NK1 receptors.
`O=C1COC(COc2ccc3c(c2)OCO3)CN1C1CCN(c2ncnc3scc(-c4ccccc4)c23)CC1` (centres unmarked) [6-(Benzo[1,3]dioxol-5-yloxymethyl)-4-[1-(5-phenyl-thieno[2,3-d]pyrimidin-4-yl)-piperidin-4-yl]-morpholin-3-one] yielded a Ki on NK1 receptors of 1320 nM.
Consider `Fc1ccc(OCC2CN(C3CCN(c4ncnc5scc(-c6ccccc6)c45)CC3)CCO2)cc1` (centres unmarked) [4-{4-[2-(4-Fluoro-phenoxymethyl)-morpholin-4-yl]-piperidin-1-yl}-5-phenyl-thieno[2,3-d]pyrimidine], for which the Ki at NK1 receptors is 472 nM.
For the molecule `COc1ccc(OCC(O)CNC2CCN(c3ncnc4scc(-c5ccccc5)c34)CC2)cc1` (centres unmarked) [1-(4-Methoxy-phenoxy)-3-[1-(5-phenyl-thieno[2,3-d]pyrimidin-4-yl)-piperidin-4-ylamino]-propan-2-ol], the inhibition constant Ki amounted to 1700 nM on NK2 receptors and 53 nM at NK1 receptors.
Consider `Cl.OC(CNC1CCN(c2ncnc3scc(-c4ccccc4)c23)CC1)COc1ccc(C(F)(F)F)cc1` (centres unmarked) [[2-Hydroxy-3-(4-trifluoromethyl-phenoxy)-propyl]-[1-(5-phenyl-thieno[2,3-d]pyrimidin-4-yl)-piperidin-4-yl]-ammonium; chloride], for which, on NK2 receptors, the “Ki (NK2), % @ 1000” value is 14% @. Also, on NK1 receptors, the Ki worked out at 53 nM.
As for `OC(CNC1CCN(c2ncnc3scc(-c4ccccc4)c23)CC1)COc1ccc(F)c(F)c1` (centres unmarked) [1-(3,4-Difluoro-phenoxy)-3-[1-(5-phenyl-thieno[2,3-d]pyrimidin-4-yl)-piperidin-4-ylamino]-propan-2-ol], the “Ki (NK2), % @ 1000” value at NK2 receptors worked out at 28% @. Besides, the affinity on NK1 receptors, expressed as Ki, was 75 nM.
`OC(CNC1CCN(c2ncnc3scc(-c4ccccc4)c23)CC1)COc1ccc(F)cc1F` (centres unmarked) [1-(2,4-Difluoro-phenoxy)-3-[1-(5-phenyl-thieno[2,3-d]pyrimidin-4-yl)-piperidin-4-ylamino]-propan-2-ol] yielded a Ki at NK1 receptors of 286 nM.
On to `c1ccc(-c2csc3ncnc(N4CCC(N5CCOC(COc6ccc7c(c6)OCO7)C5)CC4)c23)cc1` (centres unmarked) [4-{4-[2-(Benzo[1,3]dioxol-5-yloxymethyl)-morpholin-4-yl]-piperidin-1-yl}-5-phenyl-thieno[2,3-d]pyrimidine], for which, on NK1 receptors, the Ki stood at 1860 nM.
For the molecule `COc1ccc(OCC(O)CNC2CCN(c3ncnc4scc(-c5ccccc5)c34)CC2)c(Cl)c1` (centres unmarked) [1-(2-Chloro-4-methoxy-phenoxy)-3-[1-(5-phenyl-thieno[2,3-d]pyrimidin-4-yl)-piperidin-4-ylamino]-propan-2-ol], the values for the Ki on NK2 receptors (unit inferred) and on NK1 receptors were 1570 nM and 109 nM, respectively.
On to `OC(CNC1CCN(c2ncnc3scc(-c4ccccc4)c23)CC1)COc1ccc2c(c1)OCO2` (centres unmarked) [1-(Benzo[1,3]dioxol-5-yloxy)-3-[1-(5-phenyl-thieno[2,3-d]pyrimidin-4-yl)-piperidin-4-ylamino]-propan-2-ol], for which the Ki is above 10000 nM at NK2 receptors (unit inferred) and 7.6 nM at NK1 receptors.
At NK1 receptors, `OC(CNC1CCN(c2ncnc3sccc23)CC1)COc1ccc2c(c1)OCO2` (centres unmarked) [1-(Benzo[1,3]dioxol-5-yloxy)-3-(1-thieno[2,3-d]pyrimidin-4-yl-piperidin-4-ylamino)-propan-2-ol] registered a Ki of 1830 nM.
For `OC(CNC1CCN(c2ncnc3scc(-c4ccccc4)c23)CC1)COc1cc(F)cc(F)c1` (centres unmarked) [1-(3,5-Difluoro-phenoxy)-3-[1-(5-phenyl-thieno[2,3-d]pyrimidin-4-yl)-piperidin-4-ylamino]-propan-2-ol], on NK2 receptors, the “Ki (NK2), % @ 1000” value was determined as 21% @. The affinity on NK1 receptors corresponds to a Ki of 272 nM.
`Cl.OC(CNC1CCN(c2ncnc3scc(-c4ccccc4)c23)CC1)COc1ccc(Cl)c(Cl)c1` (centres unmarked) [[3-(3,4-Dichloro-phenoxy)-2-hydroxy-propyl]-[1-(5-phenyl-thieno[2,3-d]pyrimidin-4-yl)-piperidin-4-yl]-ammonium; chloride]: on NK2 receptors, the “Ki (NK2), % @ 1000” value turned out to be 28% @. This molecule also had a Ki on NK1 receptors of 20 nM.
On to `OC(CNC1CCN(c2ncnc3scc(-c4ccccc4)c23)CC1)COc1ccc(Cl)c(Cl)c1` (centres unmarked) [1-(3,4-Dichloro-phenoxy)-3-[1-(5-phenyl-thieno[2,3-d]pyrimidin-4-yl)-piperidin-4-ylamino]-propan-2-ol], for which the Ki on NK2 receptors (unit inferred) was determined as 3390 nM; at NK1 receptors, 268 nM.

For orientation: Ki means the equilibrium dissociation constant of an inhibitor or competing ligand from its target.
